Test results from doi:10.64898/2025.12.27.696692v1, “A coelenterazine-dependent luciferase from the deep-sea coral Anthoptilum murrayi Kölliker, 1880 (Cnidaria: Octocorallia: Pennatulacea)” (biorxiv, 2025).

Tested on: T1, AnmLuc (recombinant Anthoptilum murrayi luciferase)
T1 construct: codon-optimised, pET-28a(+), N-terminal His6 (no cleavage told); E. coli ArcticExpress (DE3), Ni-NTA
Assay: luminometry, Michaelis-Menten nonlinear fit
Format: biochemical
Settings: 50 mM sodium phosphate pH 7.5, 25 °C; coelenterazine 0.04–50 µM

Structure (SMILES): Oc1ccc(Cc2nc3c(Cc4ccccc4)nc(-c4ccc(O)cc4)cn3c2O)cc1 [coelenterazine]
- Km: 3.39 µM
